Target: T1, mu opioid receptor (Canis lupus familiaris, UniProt A0A0F6TMT6)
T1 construct: from tissue; host or cells: beagle brain without cerebellum, membrane homogenate
Assay: mu opioid receptor binding assay (displacement of 3H-DAMGO) in dog brain membranes
Conditions: 3H ligand DAMGO, room temperature 90 minutes, read-out: Ki values for the μ receptor
Description: The assays were conducted by the following procedure.
Laboratory bred beagles were used as a source of dog brain tissue. Animals were euthanised, their brains removed and the cerebellum discarded. The remaining brain tissue was sectioned into small pieces approximately 3 g in weight and homogenised in 50 mM Tris pH 7.4 buffer at 4° C. using a Kinematica Polytron™ tissue homogeniser. The resulting homogenate was centrifuged at 48,400×g for 10 minutes and the supernatant discarded. The pellet was resuspended in Tris buffer and incubated at 37° C. for 10 minutes. Centrifugation, resuspension and incubation steps were repeated twice more, and the final pellet was resuspended in Tris buffer and stored at −80° C. Membrane material prepared in this manner could be stored for up to four weeks prior to use.
For mu assays, increasing concentrations of experimental compound, (5×10^−12 to 10^−5 M), Tris buffer and ^3H ligand, ([D-Ala^2,N-Me-Phe^4,Gly-ol^5]-Enkephalin, DAMGO), were combined in polystyrene tubes. The reaction was initiated by the addition of tissue, and the mixture was incubated at room temperature for 90 minutes. The reaction was terminated by rapid filtration using a Brandel Cell Harvester™ through Betaplate™ GF/A glass fibre filters pre-soaked in 50 mM Tris pH 7.4, 0.1% polyethylenimine buffer. The filters were then washed three times with 0.5 mL ice-cold Tris pH 7.4 buffer. Washed filters were placed in bags and Starscint™ scintillant added. Bags containing the filters and scintillant were heat sealed and counted by a Betaplate™ 1204 beta counter.
Duplicate samples were run for each experimental compound and the data generated was analysed using IC50 analysis software in Graphpad Prism.
Ki values were calculated using Graphpad Prism according to the following formula:
Ki=IC50/1+[^3H ligand]/KD
where IC50 is the concentration at which 50% of the ^3H ligand is displaced by the test compound and KD is the dissociation constant for the ^3H ligand at the receptor site.

T1 sequence (A0A0F6TMT6 1-401): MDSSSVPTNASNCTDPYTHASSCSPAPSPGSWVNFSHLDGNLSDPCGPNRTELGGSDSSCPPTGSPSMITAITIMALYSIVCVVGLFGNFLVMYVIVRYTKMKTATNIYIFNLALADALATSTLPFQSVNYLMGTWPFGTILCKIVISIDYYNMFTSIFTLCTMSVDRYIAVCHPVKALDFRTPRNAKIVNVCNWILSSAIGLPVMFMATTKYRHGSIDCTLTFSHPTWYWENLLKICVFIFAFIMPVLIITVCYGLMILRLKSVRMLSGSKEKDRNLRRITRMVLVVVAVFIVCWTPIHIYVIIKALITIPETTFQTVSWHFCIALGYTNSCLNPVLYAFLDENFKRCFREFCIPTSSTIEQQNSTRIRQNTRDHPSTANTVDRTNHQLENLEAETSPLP

SMILES | Ki [µM]
CC(C)CCCCN1CCC(C)(c2ccc3[nH]cnc3c2)C(C)C1 (racemic) [Example 21, Trans-(±)-5-[1-(5-Methylhexyl)-3,4-dimethyl-4-piperidinyl]-1H-benzimidazole] | ≤ 4
Cc1cccc(CCN2CCC(C)(c3ccc4[nH]c(C(F)(F)F)nc4c3)C(C)C2)c1 (racemic) [Example 18, Trans-(±)-2-(Trifluoromethyl)-5-[1-(3-methylphenethyl)-3,4-dimethyl-4-piperidinyl]-1H-benzimidazole] | ≤ 4
CCCCCCN1CCC(C)(c2ccc3nc(C)oc3c2)C(C)C1 (racemic) [Example 28, Trans-(±)-2-Methyl-6-(1-hexyl-3,4-dimethyl-4-piperidinyl)-1,3-benzoxazole] | ≤ 4
CCCCCCN1CCC(C)(c2ccc3[nH]c(OC)nc3c2)C(C)C1 (racemic) [Example 7, Trans-(±)-2-Methoxy-5-(1-hexyl-3,4-dimethyl-4-piperidinyl)-1H-benzimidazole] | ≤ 4
CCCCCCN1CCC(C)(c2ccc3[nH]c(CC)nc3c2)C(C)C1 (racemic) [Example 12, Trans-(±)-2-ethyl-5-(1-Hexyl-3,4-dimethyl-4-piperidinyl)-1H-benzimidazole] | ≤ 4
CCCCCCN1CCC(C)(c2ccc3[nH]c(C)nc3c2)C(C)C1 (racemic) [Example 3, Trans-(±)-2-Methyl-5-(1-hexyl-3,4-dimethyl-4-piperidinyl)-1H-benzimidazole] | ≤ 4
